One assay addresses T1, human GSK3α (Homo sapiens, UniProt P49840).
T1 construct: Full length human GSK3α or GSK3B expressed as N-terminal GST fusion proteins; GST (N); purchased Carna Biosciences (Japan); host or cells: baculovirus host
In words: In vitro enzymatic activity assay, GSK3α. The format is biochemical. As to conditions: 1.0 mM ATP, 1.0 μM peptide substrate, 120 min, 25° C, read-out: Enzyme GSK3α (IC50).

The target in the next assay is T2, GSK3A (Homo sapiens, UniProt P49840).
T2 construct: expressed in transfected cells
Put plainly: NanoBRET cellular target engagement assay, Nanoluc-GSK3A in HEK293 cells. It is filed as cell-based. The settings on record: NanoBRET GSK3α IC50, HEK293 cells, tracer K-8, 2 hours, 37° C. On the technique in general: Bioluminescence resonance energy transfer reports proximity on the nanometre scale.

Assay [1] has as its target T3, GSK3B (Homo sapiens, UniProt P49841). Put plainly: NanoBRET cellular target engagement assay, Nanoluc-GSK3B in HEK293 cells. The format is cell-based. The arrangement: expressed in transfected cells. As to conditions: NanoBRET GSK3β IC50, HEK293 cells, tracer K-8, 2 hours, 37° C.
Assay [2] addresses T3, GSK3B. Put plainly: In vitro enzymatic activity assay, GSK3β. The arrangement: Full length human GSK3α or GSK3B expressed as N-terminal GST fusion proteins; GST (N); purchased Carna Biosciences (Japan); host or cells: baculovirus host. As to conditions: 1.0 mM ATP, 1.0 μM peptide substrate, 120 min, 25° C, read-out: Enzyme GSK3β (IC50). It is filed as biochemical.

T3 sequence (P49841 whole entry, the tested form may be a part): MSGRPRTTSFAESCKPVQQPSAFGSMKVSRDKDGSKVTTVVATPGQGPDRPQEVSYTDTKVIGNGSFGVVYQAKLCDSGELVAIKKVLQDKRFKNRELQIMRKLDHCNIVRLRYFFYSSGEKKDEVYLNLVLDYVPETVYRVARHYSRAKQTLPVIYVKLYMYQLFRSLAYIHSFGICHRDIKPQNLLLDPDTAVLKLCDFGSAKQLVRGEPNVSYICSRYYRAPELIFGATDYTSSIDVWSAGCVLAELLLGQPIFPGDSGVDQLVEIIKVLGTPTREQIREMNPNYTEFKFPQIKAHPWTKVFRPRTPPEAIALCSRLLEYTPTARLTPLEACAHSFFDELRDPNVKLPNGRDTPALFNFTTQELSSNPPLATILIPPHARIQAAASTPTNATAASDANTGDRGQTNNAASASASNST
T2 sequence (P49840 whole entry): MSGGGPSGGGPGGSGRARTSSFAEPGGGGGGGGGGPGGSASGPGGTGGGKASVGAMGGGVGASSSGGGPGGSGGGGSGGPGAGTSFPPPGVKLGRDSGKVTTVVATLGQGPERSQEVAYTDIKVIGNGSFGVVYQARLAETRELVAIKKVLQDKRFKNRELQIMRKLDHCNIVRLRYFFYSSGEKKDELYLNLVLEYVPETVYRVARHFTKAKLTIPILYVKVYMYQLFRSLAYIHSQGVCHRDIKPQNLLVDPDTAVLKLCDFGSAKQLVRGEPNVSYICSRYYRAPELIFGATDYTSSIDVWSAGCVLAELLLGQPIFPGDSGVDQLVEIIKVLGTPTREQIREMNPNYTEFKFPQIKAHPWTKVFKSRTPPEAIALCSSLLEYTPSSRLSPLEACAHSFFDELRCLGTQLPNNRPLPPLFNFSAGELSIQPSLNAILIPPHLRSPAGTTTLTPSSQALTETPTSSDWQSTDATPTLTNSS
T1 sequence (P49840 whole entry, the tested form may be a part): as the sequence (P49840 whole entry) above

A word on the IC50: it is the midpoint of a concentration-inhibition curve. Consider `Nc1ncn(-c2c(Cl)cccc2Cl)c(=O)c1C(=O)Nc1cccc(C2CCCN2)c1F` (single isomer, unassigned) [Example 167, (S)-4-amino-1-(2,6-dichlorophenyl)-N-(2-fluoro-3-(pyrrolidin-2-yl)phenyl)-6-oxo-1,6-dihydropyrimidine-5-carboxamide or (R)-4-amino-1-(2,6-dichlorophenyl)-N-(2-fluoro-3-(pyrrolidin-2-yl)phenyl)-6-oxo-1,6-dihydropyrimidine-5-carboxamide], for which the IC50 on human GSK3α was 45.4 nM; on GSK3A it was 27.2 nM; on GSK3B [1] it was 1860 nM; at GSK3B [2] it was 1810 nM.

As for `COc1cc(Cl)c(-n2cnc(N)c(C(=O)Nc3cncc(C4CCCC(C)N4)c3)c2=O)c(Cl)c1` (single isomer, unassigned) [Example 83], the IC50 at human GSK3α was 7 nM; at GSK3A, 4.1 nM; against GSK3B [1] it was 336 nM; at GSK3B [2] it was 490 nM.

For the compound `Cc1cc([C@@H](C)F)cc(C)c1-n1cnc(N)c(C(=O)Nc2cncc([C@H]3CCCCN3)c2)c1=O` (single isomer, unassigned) [Example 184, 4-amino-1-(4-((R)-1-fluoroethyl)-2,6-dimethylphenyl)-6-oxo-N-(5-((R)-piperidin-2-yl)pyridin-3-yl)-1,6-dihydropyrimidine-5-carboxamide or 4-amino-1-(4-((S)-1-fluoroethyl)-2,6-dimethylphenyl)-6-oxo-N-(5-((R)-piperidin-2-yl)pyridin-3-yl)-1,6-dihydropyrimidine-5-carboxamide], the IC50 at human GSK3α was 3.9 nM; at GSK3A, 2.1 nM; on GSK3B [1], 167 nM; at GSK3B [2], 175 nM.

For the compound `CCC(N)c1cncc(NC(=O)c2c(N)ncn(-c3c(Cl)cncc3Cl)c2=O)c1` (single isomer, unassigned) [Example 153, (R)-4-amino-N-(5-(1-aminopropyl)pyridin-3-yl)-1-(3,5-dichloropyridin-4-yl)-6-oxo-1,6-dihydropyrimidine-5-carboxamide or (S)-4-amino-N-(5-(1-aminopropyl)pyridin-3-yl)-1-(3,5-dichloropyridin-4-yl)-6-oxo-1,6-dihydropyrimidine-5-carboxamide], the IC50 was found to be 7.8 nM at human GSK3α, 6.4 nM against GSK3A, 491 nM against GSK3B [1] and 346 nM on GSK3B [2].

Take `COCc1cc(C)c(-n2cnc(N)c(C(=O)Nc3cncc(C4(N)CCC4)c3)c2=O)c(C)c1` [Example 157, 4-amino-N-(5-(1-aminocyclobutyl)pyridin-3-yl)-1-(4-(methoxymethyl)-2,6-dimethylphenyl)-6-oxo-1,6-dihydropyrimidine-5-carboxamide]: the IC50 was 32.5 nM at human GSK3α, 11.3 nM on GSK3A, 1160 nM at GSK3B [1] and 1320 nM on GSK3B [2].

On to `COc1cc(Cl)c(-n2cnc(N)c(C(=O)Nc3cncc(C4CCC(C)N4)c3)c2=O)c(Cl)c1` (single isomer, unassigned) [Example 78], for which the IC50 at human GSK3α was found to be 11.4 nM; against GSK3A it was 7.7 nM; at GSK3B [1] it was 703 nM; on GSK3B [2], 958 nM.

As for `CC(C)Oc1cc(Cl)c(-n2cnc(N)c(C(=O)Nc3cncc([C@@H]4CCCCN4)c3)c2=O)c(Cl)c1` [Example 124, (S)-4-amino-1-(2,6-dichloro-4-isopropoxyphenyl)-6-oxo-N-(5-(piperidin-2-yl)pyridin-3-yl)-1,6-dihydropyrimidine-5-carboxamide], the IC50 at human GSK3α worked out at 7 nM; on GSK3A it was 7.8 nM; on GSK3B [1], 404 nM; on GSK3B [2], 393 nM.

Turning to `CCNCc1cncc(NC(=O)c2c(N)ncn(-c3c(C)cc(CC(F)F)cc3C)c2=O)c1` [Example 156, 4-amino-1-(4-(2,2-difluoroethyl)-2,6-dimethylphenyl)-N-(5-((ethylamino)methyl)pyridin-3-yl)-6-oxo-1,6-dihydropyrimidine-5-carboxamide], the IC50 at human GSK3α is 34.9 nM; against GSK3A, 8.1 nM; against GSK3B [1] it was 957 nM; at GSK3B [2], 1250 nM.

Turning to `CCC(N)c1cncc(NC(=O)c2c(N)ncn(-c3c(C)cc(C(F)(F)F)cc3C)c2=O)c1` (single isomer, unassigned) [Example 88, (R)-4-amino-N-(5-(1-aminopropyl)pyridin-3-yl)-1-(2,6-dimethyl-4-(trifluoromethyl)phenyl)-6-oxo-1,6-dihydropyrimidine-5-carboxamide or (S)-4-amino-N-(5-(1-aminopropyl)pyridin-3-yl)-1-(2,6-dimethyl-4-(trifluoromethyl)phenyl)-6-oxo-1,6-dihydropyrimidine-5-carboxamide], the concentration for half-maximal inhibition (IC50) on human GSK3α was 15.4 nM; at GSK3A, 8.1 nM; at GSK3B [1], 454 nM; on GSK3B [2] it was 1020 nM.

Take `COC[C@H](N)c1cncc(NC(=O)c2c(N)ncn(-c3c(Cl)cc(OC(F)F)cc3Cl)c2=O)c1` (single isomer, unassigned) [Example 47, (R)-4-amino-N-(5-(1-amino-2-methoxyethyl)pyridin-3-yl)-1-(2,6-dichloro-4-(difluoromethoxy)phenyl)-6-oxo-1,6-dihydropyrimidine-5-carboxamide or (S)-4-amino-N-(5-(1-amino-2-methoxyethyl)pyridin-3-yl)-1-(2,6-dichloro-4-(difluoromethoxy)phenyl)-6-oxo-1,6-dihydropyrimidine-5-carboxamide]: the half-inhibitory concentration (IC50) stood at 3.2 nM on human GSK3α, 2.9 nM against GSK3A, 174 nM against GSK3B [1] and 227 nM at GSK3B [2].

On to `CCOc1cc(C)c(-n2cnc(N)c(C(=O)Nc3cncc(C4CCCC(C)N4)c3)c2=O)c(C)c1` (single isomer, unassigned) [Example 96], for which the IC50 at human GSK3α is 16.4 nM; at GSK3A, 6.7 nM; against GSK3B [1], 640 nM; on GSK3B [2], 706 nM.

`CCNCc1cncc(NC(=O)c2c(N)ncn(-c3c(Cl)cc(C(=O)OCC)cc3Cl)c2=O)c1` [Example 199, ethyl 4-(4-amino-5-((5-((ethylamino)methyl)pyridin-3-yl)carbamoyl)-6-oxopyrimidin-1 (6H)-yl)-3,5-dichlorobenzoate]: the concentration for half-maximal inhibition (IC50) on human GSK3α was 3.3 nM; against GSK3A, 2.4 nM; at GSK3B [1], 118 nM; at GSK3B [2], 203 nM.

`Cc1cc(C#N)cc(Cl)c1-n1cnc(N)c(C(=O)Nc2cccc([C@@H](C)N)c2)c1=O` (atropisomer, axis not shown) [Example 8, (R)-4-amino-N-(3-(1-aminoethyl)phenyl)-1-((S)-2-chloro-4-cyano-6-methylphenyl)-6-oxo-1,6-dihydropyrimidine-5-carboxamide]: the IC50 at human GSK3α stood at 4.8 nM; against GSK3A, 3.3 nM; at GSK3B [1] it was 169 nM; at GSK3B [2], 204 nM.

Turning to `CCOc1cc(C)c(-n2cnc(N)c(C(=O)Nc3cncc(C(C)N)c3)c2=O)c(C)c1` (single isomer, unassigned) [Example 104, (R)-4-amino-N-(5-(1-aminoethyl)pyridin-3-yl)-1-(4-ethoxy-2,6-dimethylphenyl)-6-oxo-1,6-dihydropyrimidine-5-carboxamide or (S)-4-amino-N-(5-(1-aminoethyl)pyridin-3-yl)-1-(4-ethoxy-2,6-dimethylphenyl)-6-oxo-1,6-dihydropyrimidine-5-carboxamide], the IC50 came to 16.2 nM on human GSK3α, 7.9 nM against GSK3A, 521 nM against GSK3B [1] and 746 nM at GSK3B [2].

The values are drawn from patent US20260327191A1, “GSK3a INHIBITORS AND METHODS OF USE THEREOF” (Blueprint Medicines Corporation, priority 2023, published 2026).
